Experimental data: patent publication US20240299358A1, “COMPOSITIONS AND METHODS FOR DIAGNOSIS AND TREATMENT OF AUTOIMMUNE DISEASES” (DUKE UNIVERSITY, priority 2021, published 2024)

Experiments:
[1] = test system: eHsp90; assay: Flow cytometry uptake of fluor-tethered Hsp90 inhibitors by T cells from human PBMCs; assay type: cell-based
Procedure: T-cell activation: PBMC aliquots (ZenBio SER-PBMC-F) were washed in RPMI-1640 with 10% FBS and PSG and then rested overnight in a T-75 flask. The suspended cells were then transferred to a fresh flask and activated in fresh RPMI-1640/10% FBS/PSG by 3:20,000 anti-CD3 (BioLegend 317303), 3:20,000 anti-CD28 (BioLegend 302913), and 1:10,000 (30 IU/mL) human IL-2 (CST 8907SC) and incubated for up to 72 hours. In the experiments with longer activation, samples were diluted 1:3 into fresh media containing hIL-2 at 72 hours post initial stimulation with CD3/CD28 antibodies.
Flow Cytometry: The activated/rested cells were plated into a 96-well round bottom plate and pelleted at low speed. Cells were resuspended in chilled media containing titrated HS-131 or HS-198 (in 1% DMSO) and stained for 30 minutes at RT. Fluorochrome tagged inhibitors and media were washed away with a PBS wash, followed by a PBS wash containing 3% NMS. Surface antibody stains were performed in 3% NMS/PBS for 30 minutes followed by PBS washes (2x). Samples were analyzed on BD FACSCanto II flow cytometer. Permeabilized samples were prepared as previously described followed by fixation in 4% Formaldehyde/PBS overnight at 4° C. Sample analysis was performed with Flowing Software and FlowJo.
A hallmark of T cell function is to proliferate rapidly in response to antigen presentation along with appropriate cytokine and costimulatory signaling. This leads to the induction of the chaperone machinery which is essential in facilitating this process. In some respects, antigen induced T cell proliferation may be analogous to oncogene driven metastasis. Therefore, to investigate whether proliferating T cells similarly express eHsp90 during T cell activation, their ability to absorb fluor-tethered Hsp90 inhibitors following an anti-CD3/CD28 challenge was examined (see. FIGS. 2A-2E). The structures of two types of fluor-tethered Hsp90 inhibitors (HS-131 and […]) that were used in the present studies are shown in FIG. 2A. […]

[2] = test system: eHsp90; assay: In vivo tracking of eHsp90 expression in CIA mouse model of RA (flow cytometry, CryoViz imaging); conditions: 6 hours post tail vein injection, CD4 and CD8 T cells (FIG. 5B)
Procedure: FIG. 5A is a schematic of CIA mouse model of RA experimental design, wherein mice were inoculated with CIA on day 0) and 21. […] 6-hours post treatment mice were whole body cryopreserved. […] Gated regions indicate CD4 and CD8 T-Cell populations isolated from individual mice. eHsp90 expression in CD4 and CD8 T cells 6 hours post HS-131 or HS-198 treatment. N=3+SD. Experiments represent 3 biological replicates.
CIA Disease: Collagen was prepared at 4 mg/ml in 0.01 N acetic acid. Equal volumes of 4 mg/ml collagen and 5 mg/ml Freund's complete adjuvant were emulsified by hand mixing with syringes for approximately 5 min, at which point a bead of this material holds its form when placed in water. On study days 0 and 21, animals were anesthetized with isoflurane and given intradermal injections of a total of 400 μg of type II collagen in Freund's complete adjuvant at the base of the tail.
CryoViz™ Imaging: Whole mice were imaged at 10.23 μm×10.23 μm in-plane resolution using an Olympus MVX-10 microscope with a 1X objective and 0.63× magnification and 40 μm section thickness, using the Cryo Viz™ (BioInVision, Inc., Cleveland, USA). CryoViz™ is a fully automated, serial sectioning-and-imaging system which provides 3-dimensional, tiled, microscopic anatomical bright field and molecular fluorescence images over large fields-of-view such as a whole mouse. Images were acquired using a dual band FITC/TxRed fluorescence filter (Chroma, Inc., Rockingham, VT), a liquid crystal RGB filter and a low-noise monochrome camera. Raw images acquired by the Cryo Viz™ were processed to generate 3D color anatomical brightfield and molecular fluorescence volumes using the Cryo Viz™ Preprocessor software (BioIn Vision, Inc., Cleveland, Ohio). These 3D volumetric image data were then processed using the CryoViz™ 3D Visualizer software (BioInVision, Inc., Cleveland, USA) to obtain 3D reconstructed brightfield and fluorescence volume renderings and movies with 2D slice cutaway animations, showing the 2D/3D biodistribution of TxRed labeled HS-131 within the mouse volume.
This was consistently seen in cell culture, tumor cell xenografts and mouse models of spontaneous metastatic disease (Barrott et al. Chem Biol 20. 1187-1197 (2013)). […] To determine if this phenomenon occurred within the context of a fully functional immune system, the collagen induced arthritic (CIA) mouse model of human rheumatoid arthritis (RA) was utilized (Rice et al. Arthritis Rheum 58. 3765-3775 (2008)). Mice (DBA/IlacJ ˜8 weeks old) reliably develop polyarthritis when immunized against bovine type II collagen (Scarneo et al. Arthritis Res Ther 21, 292 (2019): Campbell et al., Ann Rheum Dis 56, 364-368 (1997)). The disease that occurs is usually non-symmetric, and any combination of paws/joints may be affected. Mice were injected […] with bovine collagen at Day (and then again 21 days later (FIG. 5A). This second injection triggered the development of the CIA related symptoms over the next several days within the joints. A primary mediator of local inflammatory responses in autoimmunity are invading T cell populations recognizing foreign antigens. To determine if invading T cells at sites of active disease expressed eHsp90, the animals were injected with HS-131 or HS-198. This was done at the peak of RA symptoms following the second immune challenge. After 6 hours, the animals were euthanized, immediately cryo-frozen in liquid nitrogen and cryo-sectioned (see, FIG. 5A).
Approximately, 500 40 μm slices were made and each slice imaged with both bright field and by fluorescence at Ex640 nm/Em680 nm. Evaluation of the biodistribution was then made by histological examination of individual slices and after in silico reconstruction of the entire mouse anatomy (see, FIGS. 5B-5E).

## Cc1nn(-c2ccc(C(=O)N(C)C)c(NCCCOCCOCCOCCOCCOCCCNCc3ccc(C(=C\C=C4/N(CCCCS(=O)(=O)O)c5ccccc5C4(C)C)/C=C/C4=[N+](CCCCS(=O)(=O)[O-])c5ccccc5C4(C)C)cc3)c2)c2c1C(=O)CC(C)(C)C2 [HS-198]
[1]; 10 μM (FIG. 2D)
  uptake of inactive analogue by stimulated T cells: minimal uptake
[2]
  probe signal (eHsp90 expression) in T cells of PBMC populations from CIA mice by flow cytometry: No signal

## CC(C)c1cc(-c2n[nH]c(=O)n2-c2ccc3c(ccn3C)c2)c(O)cc1O [ganetespib, reference compound]
[1]; saturating dose, 10-fold excess of ganetespib over 10 μM HS-131 (FIG. 2D)
  fluor signal on competition with Hsp90 inhibitor: effectively blocked
